Experimental data taken from paper PMC10275983 (Nature Communications, 2023).

What was measured:
[1] = tested on: SARS-CoV-2; details: combined with ritonavir; initiated within three days of symptom onset; interim results of Phase II-III studies; cited from earlier work
From the text: Small molecule antivirals offer potential advantages over antibody therapeutics. […] During the early months of the pandemic, huge multinational effort was initiated to repurpose already approved antiviral or immunosuppressive drugs. One such drug was remdesivir, a nucleoside analog chain terminator that blocks replication of viral RNA[17].

[2] = tested on: SARS-CoV-2/human/Liverpool/REMRQ0001/2020; type: in vivo

| Compound | reduced hospitalization risk [1] | inflammatory markers (cytokine and chemokine transcripts) in lung and nasal turbinate ([2]; K18 hACE2 mice N=4, day 4 post-infection, same dosing, qPCR) | infectious virus in the lungs (plaque assay on lung homogenate) ([2]; mouse, in vivo) | viral RNA levels in nasal turbinates (qPCR, sub-genomic E gene) ([2]; mouse, in vivo) |
| --- | --- | --- | --- | --- |
| CC(C)(C)[C@H](NC(=O)C(F)(F)F)C(=O)N1C[C@H]2[C@@H]([C@H]1C(=O)N[C@H](C#N)C[C@@H]1CCNC1=O)C2(C)C [nirmatrelvir] | 89% |  |  |  |
| CCC(CC)COC(=O)[C@H](C)N[P@](=O)(OC[C@H]1O[C@@](C#N)(c2ccc3c(N)ncnn23)[C@H](O)[C@@H]1O)Oc1ccccc1 [remdesivir] |  | remained substantially elevated | only partially decreased viraemia | no significant impact |
